In PubChem BioAssay AID2060496 (Molecular Pharmacology Branch, DTP, NCI, 2025):
pIC50: −log10 of the molar value.

Test system: 276233-004-R-J1-PDC complex spheroid viability
Assay: Anticancer human tumor 276233-004-R-J1-PDC patient-derived colon adenocarcinoma cell line growth inhibition [GQUAD]
Details: for pIC50: curve of first compound; for viability, T/C: stronger effect = lower value; active = viability on the fitted dose curve at most 10% of control; inactive = the rest
In short: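 Multi-cell-type spheroids of tumor cells with HUVEC and mesenchymal stem cells, treated with drug combinations. Concentrations descend in half-log steps from near clinical Cmax, or from 10 microM where Cmax is unknown; viability read-out.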
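Note: spheroids exposed to drugs for seven days.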
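Throughout, for viability, T/C: 100% = DMSO vehicle control viability.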

O=C(NO)c1cnc(N2CCN(S(=O)(=O)c3ccc4ccccc4c3)CC2)nc1 + Cc1cnc(CNC(=O)c2c(=O)c3ccc(N4CCCN(C)CC4)nc3n3c2sc2ccccc23)cn1
inactive: viability, T/C (second compound 0.0316 µM, first compound 0.0316 µM) 102% | viability, T/C (second compound 0.0316 µM, first compound 0.1 µM) 86.2% | viability, T/C (second compound 0.0316 µM, first compound 0.316 µM) 69% | viability, T/C (second compound 0.0316 µM, first compound 1 µM) 10.2% | viability, T/C (second compound 0.1 µM, first compound 0.0316 µM) 93.9% | viability, T/C (second compound 0.1 µM, first compound 0.1 µM) 94.6% | viability, T/C (second compound 0.1 µM, first compound 0.316 µM) 44.4% | viability, T/C (second compound 0.316 µM, first compound 0.0316 µM) 84.6% | viability, T/C (second compound 0.316 µM, first compound 0.1 µM) 85.2% | viability, T/C (second compound 0.316 µM, first compound 0.316 µM) 46% | viability, T/C (second compound 1 µM, first compound 0.0316 µM) 67.8% | viability, T/C (second compound 1 µM, first compound 0.1 µM) 86% | viability, T/C (second compound 1 µM, first compound 0.316 µM) 30.5% | viability, T/C (second compound 3.16 µM, first compound 0.0316 µM) 72.2% | viability, T/C (second compound 3.16 µM, first compound 0.1 µM) 63.9% | viability, T/C (second compound 3.16 µM, first compound 0.316 µM) 21.5% | viability, T/C (second compound 10 µM, first compound 0.0316 µM) 71.6% | viability, T/C (second compound 10 µM, first compound 0.1 µM) 54.2% | viability, T/C (second compound 10 µM, first compound 0.316 µM) 11.4%
6.95: pIC50 (second compound 10 µM)
6.71: pIC50 (second compound 1 µM)
active: viability, T/C (second compound 0.0316 µM, first compound 3.16 µM) 5.35% | viability, T/C (second compound 0.0316 µM, first compound 10 µM) 4.15% | viability, T/C (second compound 0.1 µM, first compound 1 µM) 13.8% | viability, T/C (second compound 0.1 µM, first compound 3.16 µM) 5.07% | viability, T/C (second compound 0.1 µM, first compound 10 µM) 3.5% | viability, T/C (second compound 0.316 µM, first compound 1 µM) 6.38% | viability, T/C (second compound 0.316 µM, first compound 3.16 µM) 5.3% | viability, T/C (second compound 0.316 µM, first compound 10 µM) 5.47% | viability, T/C (second compound 1 µM, first compound 1 µM) 6.13% | viability, T/C (second compound 1 µM, first compound 3.16 µM) 4.71% | viability, T/C (second compound 1 µM, first compound 10 µM) 4.58% | viability, T/C (second compound 3.16 µM, first compound 1 µM) 5.71% | viability, T/C (second compound 3.16 µM, first compound 3.16 µM) 5.15% | viability, T/C (second compound 3.16 µM, first compound 10 µM) 5.15% | viability, T/C (second compound 10 µM, first compound 1 µM) 5.41% | viability, T/C (second compound 10 µM, first compound 3.16 µM) 4.71% | viability, T/C (second compound 10 µM, first compound 10 µM) 3.76%
6.84: pIC50 (second compound 3.16 µM)
6.34: pIC50 (second compound 0.0316 µM)
6.55: pIC50 (second compound 0.1 µM) | pIC50 (second compound 0.316 µM)
